Where “and” joins values, the source holds several entries; their conditions need not be identical. Identical values can stand only once. Like-named read-outs stand apart in the source and are kept apart here.
Tests used:
[1] = tested on: C57BL/6J mice on a high-fat diet; assay: Blood glucose of C57BL/6J mice on a high-fat diet, postabsorption conditions; format: in vivo, mouse; details: male C57BL/6J mice on high-fat diet, ST1326 30 mg/kg and metformin 200 mg/kg alone or in combination, twice daily for 15 days, 6 hours after last treatment, mean ± s.e.
From the text: (§1) An example is the C57BL/6 mouse, which, as a result of exposure to a high-fat diet, develops not only insulin resistance but also mild hyperglycaemia (Surwit et al., 37: 1163-1167, 1988; Luo et al., Metabolism 47: 663-668,1998).
(§2) The B6. V-Lep ob/ob, C57BL/KsJ db/db and C57BL/6 mice used in the experiments were supplied by Jackson Lab. (via Charles River).
(§3) Blood samples were taken from ob/ob and db/db mice in standard environmental conditions, on a normal diet (4 RF21, Mucedola) and from C57BL/6J mice on a high-fat diet (D-12331, Research Diets) for 3 months, in postabsorption conditions (fasting from 8.30 a.m. to 4.30 p.m.) from the caudal vein, with the aid of a Jelco 22G catheter (Johnson and Johnson).
(§4) The mice were treated orally twice daily (at 8.30 a.m. and 6.30 p.m.) with ST1326 at the dose of 30 mg/kg and with metformin at the dose of 200 mg/kg, alone or in combination.
(§5) Blood samples were taken on various different days after administration of the products and in different nutritional conditions for the serum glucose determinations, OGTT (Oral Glucose Tolerance Test) and IST (Insulin Suppression Test: Fujita et al., Diabetes 32: 804-810, 1983; Meglasson et al., J. Pharm. Exp. Therap. 266: 1454-1462, 1993; Luo et al., J. Pharm. Exp. Therap. 288: 529-534, 1999).

KKAy mouse = details: cited from earlier work
type 2 diabetes patients = details: cited from earlier work
[2] = tested on: C57BL/6 mice on a high-fat diet; assay: Oral Glucose Tolerance Test (OGTT) in C57BL/6 mice on a high-fat diet; format: in vivo, mouse; details: male C57BL/6 mice on high-fat diet; for Blood glucose in the OGTT, 0 min: ST1326 30 mg/kg and metformin 200 mg/kg alone or in combination, twice daily for 35 days, postabsorption, 6 hours after last treatment; for Blood glucose in the OGTT, 30 min / Blood glucose in the OGTT, 60 min / Blood glucose in the OGTT, 120 min / Blood glucose in the OGTT, AUC: same treatment for 35 days; for Blood glucose in the OGTT, 30 min: 30 min after glucose loading; for Blood glucose in the OGTT, 60 min: 60 min after glucose loading; for Blood glucose in the OGTT, 120 min: 120 min after glucose loading; for Blood glucose in the OGTT, AUC: AUC 0-120 min
From the text: as §1, §2, §3, §4, §5
(§6) In the OGTT, blood samples were taken 0, 30, 60 and 120 minutes after glucose loading (3 g/kg).

db/db mice [3] = assay: Blood glucose of db/db mice in postabsorption conditions, ST1326 and metformin alone or in combination; format: in vivo, mouse; details: male db/db mice, ST1326 30 mg/kg and metformin 200 mg/kg alone or in combination, twice daily for 16 days, 6 hours after last treatment, mean ± s.e.
From the text: as §2, §3, §4, §5

db/db mice [4] = assay: Oral Glucose Tolerance Test (OGTT) in db/db mice; format: in vivo, mouse; details: male db/db mice, fasting overnight; for Blood glucose in the OGTT, 0 min: ST1326 30 mg/kg and metformin 200 mg/kg alone or in combination, twice daily for 37 days, 15 hours after last treatment; for Blood glucose in the OGTT, 30 min / Blood glucose in the OGTT, 60 min / Blood glucose in the OGTT, 120 min / Blood glucose in the OGTT, AUC: same treatment for 37 days; for Blood glucose in the OGTT, 30 min: 30 min after glucose loading; for Blood glucose in the OGTT, 60 min: 60 min after glucose loading; for Blood glucose in the OGTT, 120 min: 120 min after glucose loading; for Blood glucose in the OGTT, AUC: AUC 0-120 min
From the text: as §2, §3, §4, §5, §6

ob/ob mice [5] = assay: Insulin Suppression Test (IST), blood glucose of ob/ob mice; format: in vivo, mouse; details: for Blood glucose levels in the IST: male ob/ob mice, postabsorption, 8 hours after last treatment, mean ± s.e.; for Reduction of hyperglycaemia in the IST: ob/ob mouse
From the text: as §2, §3, §4, §5
In the IST, blood samples were taken 60 min after subcutaneous loading of glucose (3 g/kg), insulin (Humulin R., Lilly 2 U/kg) and somatostatin (0.5 mg/kg).

ob/ob mice [6] = assay: Blood glucose of ob/ob mice in feeding conditions; format: in vivo, mouse; details: male ob/ob mice, ST1326 30 mg/kg and metformin 200 mg/kg alone or in combination, twice daily for 11 days, 15 hours after last treatment, mean ± s.e.
From the text: as §2, §3, §4, §5

db/db mice [7] = assay: Serum glucose of db/db mice treated with ST1326 for 45 days, postabsorption conditions; format: in vivo, mouse; details: for Lowering serum glucose: db/db mice; for Serum glucose levels: male db/db mice, postabsorption, 8 hours after last treatment, mean ± s.e.
From the text: as §2, §3

[8] = ST1326 30 mg/kg and metformin 200 mg/kg alone or in combination, twice daily for 18 days

Q: With `CN(C)C(=N)N=C(N)N` [METFORMIN, metformin] as the compound, how does the Blood glucose levels [1] read?
A: 146.1 ± 9.2 mg/dL

Q: And the Reduction of hyperglycaemia (KKAy mouse; 200 mg/kg/day)?
A: ineffective

Q: And the Reduction of hyperglycaemia (KKAy mouse; 900 mg/kg/day)?
A: 50%

Q: And the Reduction of hyperglycaemia (type 2 diabetes patients; in combination with sulphonylureas)?
A: 25%

Q: What about the Reduction of hyperglycaemia (type 2 diabetes patients; monotherapy after the failure of diet and physical exercise) of the same compound?
A: 20% and 13-37%

Q: And the “Incidence of diarrhoea, nausea and gastrointestinal disorders” value (type 2 diabetes patients; patients on metformin)?
A: approximately 20%

Q: What about the “Blood glucose in the OGTT, 0 min” value [2] of the same compound?
A: 141.1 ± 11.4 mg/dL

Q: What about the “Blood glucose in the OGTT, 30 min” value [2] of the same compound?
A: 241.2 ± 18.9 mg/dL

Q: What about the “Blood glucose in the OGTT, 60 min” value [2] of the same compound?
A: 212.3 ± 5.0 mg/dL

Q: What about the “Blood glucose in the OGTT, 120 min” value [2] of the same compound?
A: 186.2 ± 15.1 mg/dL

Q: What about the Blood glucose in the OGTT, AUC [2] of the same compound?
A: 24500 ± 1180 mg·min/dL

Q: And the Blood glucose levels (db/db mice [3])?
A: 337.8 ± 33.1 mg/dL

Q: And the “Blood glucose in the OGTT, 0 min” value (db/db mice [4])?
A: 195.5 ± 21.5 mg/dL

Q: And the “Blood glucose in the OGTT, 30 min” value (db/db mice [4])?
A: 530.9 ± 34.6 mg/dL

Q: What about the “Blood glucose in the OGTT, 60 min” value (db/db mice [4]) of the same compound?
A: 456.8 ± 52.4 mg/dL

Q: What about the “Blood glucose in the OGTT, 120 min” value (db/db mice [4]) of the same compound?
A: 344.4 ± 40.9 mg/dL

Q: What about the Blood glucose in the OGTT, AUC (db/db mice [4]) of the same compound?
A: 49700 ± 4720 mg·min/dL

Q: And the “Blood glucose levels in the IST” value (ob/ob mice [5]; [8])?
A: 433.7 ± 34.8 mg/dL

Q: And the “Blood glucose levels in the IST” value (ob/ob mice [5]; oral metformin 300 mg/kg twice daily for 8 days)?
A: 412.1 ± 3.5 □ mg/dl

Q: What about the “Reduction of hyperglycaemia in the IST” value (ob/ob mice [5]; 200 mg/kg/day) of the same compound?
A: ineffective

Q: What about the “Reduction of hyperglycaemia in the IST” value (ob/ob mice [5]; 600 mg/kg/day) of the same compound?
A: 22%

Q: Which Blood glucose levels [1] does the source give for `CCCCCCCCCCCCCCNC(=O)N[C@H](CC(=O)[O-])C[N+](C)(C)C` [ST1326, R-4-trimethylammonio-3-(tetradecylcarbamoyl)-amino-butyrate] here?
A: 167.3 ± 4.7 mg/dL

Q: And the Blood glucose levels (ob/ob mice [6])?
A: 394.8 ± 25.7 mg/dL

Q: And the “Blood glucose in the OGTT, 0 min” value [2]?
A: 156.0 ± 7.8 mg/dL

Q: And the “Blood glucose in the OGTT, 30 min” value [2]?
A: 236.3 ± 11.2 mg/dL

Q: What about the “Blood glucose in the OGTT, 60 min” value [2] of the same compound?
A: 207.0 ± 9.9 mg/dL

Q: What about the “Blood glucose in the OGTT, 120 min” value [2] of the same compound?
A: 212.9 ± 8.6 mg/dL

Q: What about the Blood glucose in the OGTT, AUC [2] of the same compound?
A: 25100 ± 652 mg·min/dL

Q: And the Blood glucose levels (db/db mice [3])?
A: 370.7 ± 30.0 mg/dL

Q: And the Lowering serum glucose (db/db mice [7]; dose of 40 mg/kg/day)?
A: inactive

Q: What about the Lowering serum glucose (db/db mice [7]; dose of 100 mg/kg/day) of the same compound?
A: effective

Q: What about the Serum glucose levels (db/db mice [7]; oral 20 mg/kg twice daily for 45 days) of the same compound?
A: 562 ± 40 mg/dL

Q: What about the Serum glucose levels (db/db mice [7]; oral 50 mg/kg twice daily for 45 days) of the same compound?
A: 350 ± 48 Δ mg/dl

Q: What about the “Blood glucose in the OGTT, 0 min” value (db/db mice [4]) of the same compound?
A: 175.3 ± 25.6 mg/dL

Q: What about the “Blood glucose in the OGTT, 30 min” value (db/db mice [4]) of the same compound?
A: 557.2 ± 30.6 mg/dL

Q: And the “Blood glucose in the OGTT, 60 min” value (db/db mice [4])?
A: 498.3 ± 23.5 mg/dL

Q: And the “Blood glucose in the OGTT, 120 min” value (db/db mice [4])?
A: 284.6 ± 20.8 mg/dL

Q: And the Blood glucose in the OGTT, AUC (db/db mice [4])?
A: 50300 ± 2430 mg·min/dL

Q: And the “Blood glucose levels in the IST” value (ob/ob mice [5]; [8])?
A: 524.2 ± 56.2 mg/dL

Source: US20090131515A1, “Combination of antidiabetic drugs” (SIGMA-TAU INDUSTRIE FARMACEUTICHE RIUNITE S.p.A., priority 2003, published 2009)
